# According to patent US11753373B2, “Protease inhibitors as antivirals” (priority 2021, dated 2023):
# Where two headings read alike, the source gives them in different places.
# What was measured:
# [1] = type: in vitro ADME; details: extraction ratio, compound at 1 uM; for Liver Microsomal Stability (ER) SD rat: SD rat liver microsomes 0.5 mg/mL; for Liver Microsomal Stability (ER) Beagle dog: beagle dog liver microsomes 0.5 mg/mL; for Liver Microsomal Stability (ER) Monkey: monkey liver microsomes 0.5 mg/mL; for Liver Microsomal Stability (ER) Mouse: mouse liver microsomes 0.5 mg/mL
# Protocol: (§1) Metabolic stability of novel protease inhibitors was determined via liver microsomal stability assay. Human, mouse, SD rat, beagle dog or monkey liver microsomes were incubated with the test compound for 5 to 60 minutes at 37° C., and then the remaining parent compound was quantified by LC-MS/MS. Percentage of the test compound remaining, half-life (t1/2), in vitro intrinsic clearance (CLint, in vitro), in vivo intrinsic clearance (CLint, in vivo), hepatic clearance (CLh) and extraction ratio (ER) were calculated.
# (§2) Procedure: The assay was done as described in Baranczewski, P. et al. (2006) Pharmacological Reports 58:453-472; Pearson, P. and Wienkers, L. (2008) Handbook of Drug Metabolism, 2nd Edition. CRC Pres, P.478; and Venkatesh, P. et al. (2007) Biol. Pharm. Bull. 30:1021-2024. 0.625 mg/mL liver microsomes solution was prepared by mixing 2325 μL 100 mM of K-phosphate buffer (pH 7.4) containing 2.5 mM of MgCl2, 1.25 mM of EDTA, and 75 μL microsomes (20 mg/mL) in a vial for each species.
# (§3) Positive control compound: (±) Verapamil hydrochloride (Cat No.: V4629; Lot No.: MKBV4993V; Source: Sigma)
# (§4) 40 μL aliquots of the liver microsome/test compound mixture were dispensed into 96-well plate in triplicate and pre-warmed the mixture for 5 minutes at 37° C. Then, 10 μL of 5 mM NADPH solution was added to each well to initiate the reaction, and gently mixed. The samples were incubated at 37° C. with gentle shaking. (Final concentrations: compound=1 μM; liver microsomes protein=0.5 mg/mL; MgCl2=2 mM; EDTA=1 mM; ACN=0.1%; DMSO=0.05%).
# (§5) For 0-min samples, 200 μL of ACN containing internal standard was added to 40 μL of liver microsome/test compound mixture, followed by addition of 5 mM NADPH, and mixed gently.
# (§6) For negative control: 40 μL of liver microsome/test compound mixture was incubated at 37° C. with gentle shaking for 60 minutes, followed by addition of 200 μL ACN containing 1% FA and internal standard and 10 μL of 5 mM NADPH, mixed gently.
# (§7) All samples were centrifuged at 4° C. for 20 minutes at 4,000 rpm. Then, 100 μL of the supernatant from each sample was transferred to a new 96-well plate and 100 μL of ultrapure water containing 1% FA was added to each well, and mixed gently. Samples were analyzed by LC-MS/MS.
# (§8) Data Analysis: Peak area ratio (Peak Area of test compound/Peak Area of internal standard) was used to represent the concentration of compound in each sample. The remaining percentage (% Remaining) at appointed time points was calculated versus the concentration of compound at 0 min. The Ln value of the remaining percentage was linearly fitted against the incubation time.
# (§9) The half-life and clearance were calculated using the following equations:
# (§10) Determined percent of the remaining test compound: % remaining=[area at tx/average areas at t0]×100 (1) % metabolized=[100−% remaining] (2)
# (§11) Calculated the half-life (t1/2) using the slope (k) of the log-linear regression from the concentration of remaining parent compound versus time (min) relationship: t1/2 (min)=−ln 2/k. (3)
# (§12) Clint, in vitro (mL/min/mg) Clint,in vitro=k/c,(c:Liver microsome concentration in the incubation system) (4)
# (§13) Hepatic Clearance (CLh) CLh=Clint,in vivo*Hepatic Blood Flow (mL/min/kg)/(Hepatic Blood Flow (mL/min/kg)+Clint,in vivo) (6)
# (§14) Extraction ratio (ER): ER=CLint,in vivo/(Qh+CLint,in vivo)*100,Qh:liver blood flow (7)
# [2] = target: SARS-CoV-2 M^pro (3CL protease) (Severe acute respiratory syndrome coronavirus 2 (2019-nCoV) (SARS-CoV-2), UniProt P0DTD1); type: biochemical; details: read-out: SARS-CoV-2M^pro inhibition IC50
# [3] = type: in vitro ADME, Human; details: extraction ratio, compound at 1 uM, human liver microsomes 0.5 mg/mL
# Protocol: as §1, §2, §3
# as §4, with “shaking.” for “shaking. (Final concentrations: compound=1 μM; liver microsomes protein=0.5 mg/mL; MgCl2=2 mM; EDTA=1 mM; ACN=0.1%; DMSO=0.05%).”
# as §5, §6, §7, §8, §9, §10, §11, §12, §13, §14
# SARS-CoV-2 = experiment: Anti-viral in vitro PRNT assay in Vero E6 cells; type: cell-based; details: Vero E6 cells, 1000 pfu, 3 days, plaque reduction; read-out: anti-SARS-CoV2 (PRNT) in Vero E6 EC50
# [4] = wild type Mpro 17 nM, substrate 40 uM
SMILES,Liver Microsomal Stability (ER) SD rat [1],Liver Microsomal Stability (ER) Beagle dog [1],Liver Microsomal Stability (ER) Monkey [1],Liver Microsomal Stability (ER) Mouse [1],"IC50 [2, 4] [nM]",Liver Microsomal Stability (ER) Human [3],EC50 (SARS-CoV-2) [nM],IC50 [2] [nM]
CC(C)C[C@H](NC(=O)c1cc2ccccc2[nH]1)C(=O)N1C[C@H]2[C@@H]([C@H]1C(=O)N[C@H](C#N)C[C@@H]1CCNC1=O)C2(C)C [Compound G-1-b],0.33,0.33,0.51,0.16,377,0.38,,
CC(C)(C)[C@H](NC(=O)C1CC1)C(=O)N1C[C@H]2[C@@H]([C@H]1C(=O)N[C@H](C#N)C[C@@H]1CCNC1=O)C2(C)C [Compound H-2-c],0.01,0.01,,0.32,6.1,0.02,3360,
CC(C)C[C@H](NC(=O)c1cc2ccccc2[nH]1)C(=O)N1C[C@H]2[C@@H]([C@H]1C(=O)N[C@H](C=O)C(C)(C)C)C2(C)C [Compound G-3-a],0.54,0.62,,0.78,> 10000,0.70,,
CC(C)C[C@H](NC(=O)c1cc2ccccc2[nH]1)C(=O)N1C[C@H]2[C@@H]([C@H]1C(=O)N[C@@H](C#N)C[C@@H]1CCNC1=O)C2(C)C [Compound G-1-c],0.30,0.30,0.58,0.27,964,0.67,,
CC1(C)[C@@H]2[C@@H](C(=O)N[C@H](C#N)C[C@@H]3CCNC3=O)N(C(=O)[C@@H](NC(=O)C(F)(F)F)C3CC3)C[C@@H]21 [Compound D-2-a],0.03,−0.04,,0.13,24,0.05,,
CC(C)C[C@H](NC(=O)c1cc2ccccc2[nH]1)C(=O)N1C[C@H]2[C@@H]([C@H]1C(=O)N[C@H](C=O)C(C)C)C2(C)C [Compound G-2-a],0.53,0.56,0.48,0.16,> 2000,0.54,,
CC(C)C[C@H](NC(=O)c1cc2ccccc2[nH]1)C(=O)N1C[C@H]2[C@@H]([C@H]1C(=O)N[C@@H](C[C@@H]1CCNC1=O)C(=O)CO)C2(C)C [Compound G-1-e],0.07,0.07,,0.25,57.9,0.17,,
CC(C)C(=O)N[C@H](C(=O)N1C[C@H]2[C@@H]([C@H]1C(=O)N[C@H](C#N)C[C@@H]1CCNC1=O)C2(C)C)C1CC1 [Compound D-2-b],0.00,0.06,,0.10,42.5,0.08,,
CC1(C)[C@@H]2[C@@H](C(=O)N[C@H](C#N)C[C@@H]3CCNC3=O)N(C(=O)[C@@H](NC(=O)C(F)F)C3CC3)C[C@@H]21 [Compound D-2-d],0.05,0.05,,0.18,58.7,0.03,,
"CC(C)C[C@H](NC(=O)c1cc2ccccc2[nH]1)C(=O)N1C[C@H]2[C@@H]([C@H]1C(=O)N[C@@H](C[C@@H]1CCNC1=O)C(=O)CCl)C2(C)C [Compound G-1-d, N-[(2S)-1-[(1R,2S,5S)-2-{[(2S)-4-chloro-3-oxo-1-[(3S)-2-oxopyrrolidin-3-yl]butan-2-yl]carbamoyl}-1,5-dihydrogenio-6,6-dimethyl-3-azabicyclo[3.1.0]hexan-3-yl]-4-methyl-1-oxopentan-2-yl]-1H-indole-2-carboxamide]",0.78,0.81,0.92,0.59,,0.83,,968
CC(C)C[C@H](NC(=O)C(F)(F)F)C(=O)N1C[C@H]2[C@@H]([C@H]1C(=O)N[C@H](C#N)C[C@@H]1CCNC1=O)C2(C)C [Compound H-1-c],0.06,0.02,,0.44,36.7,0.15,,
"Cc1cccc2[nH]c(C(=O)N[C@@H](CC(C)C)C(=O)N[C@@H](C[C@@H]3CCNC3=O)C(=O)CCl)cc12 [Compound A-4-c, (2S)—N-[(2S)-4-chloro-3-oxo-1-[(3S)-2-oxopyrrolidin-3-yl]butan-2-yl]-4-methyl-2-[(4-methyl-1H-indol-2-yl)formamido]pentanamide]",0.70,0.72,0.69,0.81,,0.67,,1120
"CC(C)C[C@H](NC(=O)c1cc2c(F)cccc2[nH]1)C(=O)N[C@@H](C[C@@H]1CCNC1=O)C(=O)CCl [Compound A-3-d, (2S)—N-[(2S)-4-chloro-3-oxo-1-[(3S)-2-oxopyrrolidin-3-yl]butan-2-yl]-2-[(4-fluoro-1H-indol-2-yl)formamido]-4-methylpentanamide]",0.77,0.78,0.72,0.58,,0.84,,335
CC(C)C(=O)N[C@H](C(=O)N1C[C@H]2[C@@H]([C@H]1C(=O)N[C@@H](C[C@@H]1CCNC1=O)C(N)=O)C2(C)C)C(C)(C)C [Compound H-2-b],0.37,0.06,,0.37,6.6,0.18,,
Cc1cccc2[nH]c(C(=O)N[C@@H](CC(C)C)C(=O)N[C@H](C#N)C[C@@H]3CCNC3=O)cc12 [Compound A-4-b],0.20,0.06,0.43,0.47,172,0.02,,
"COc1cccc2[nH]c(C(=O)N[C@@H](CC(C)C)C(=O)N[C@@H](C[C@@H]3CCNC3=O)C(=O)CCl)cc12 [Compound A-5-c, (2S)—N-[(2S)-4-chloro-3-oxo-1-[(3S)-2-oxopyrrolidin-3-yl]butan-2-yl]-2-[(4-methoxy-1H-indol-2-yl)formamido]-4-methylpentanamide]",0.74,0.80,0.79,0.84,,0.89,,359
